# According to patent US10398697B2, “Solid solution comprising (6S)-5-methyl tetrahydrofolic acid or salt thereof, and preparation and use thereof” (priority 2014, dated 2019):
# Read-outs that look alike come from different tables or passages of the source.
# Tests used:
# mice [1] = experiment: Acute toxicity study of JK12A; assay type: in vivo; settings: dose of 2000 mg/kg
# [2] = test system: T lymphocyte proliferation; experiment: T lymphocyte proliferation, stimulus with Con A (CPM); assay type: cell-based
# T lymphocyte = experiment: Cell survival rate (OD) of lymphocytes with JK12A; assay type: cell-based
# mice [3] = experiment: Single dose toxicity of JK1303, kidney findings after 14 days; assay type: in vivo; settings: 14 days after a single dose of 1000 mg/kg
# mice [4] = settings: after harmful impurities eliminated by the technology of the invention
# [5] = acute toxicity test data published at present; cited from earlier work
# [6] = Concentration determined 0.164 M
# [7] = Concentration determined 0.41 M
# [8] = Concentration determined 1.024 M
# [9] = Concentration determined 2.56 M
# [10] = Concentration determined 16.0 M
# [11] = Concentration determined 100.000 µM
# [12] = Amount of VC 0, day 0, 25° C. and 40% humidity
# [13] = Amount of VC 0, day 7, 25° C. and 40% humidity
# [14] = Amount of VC 0, day 15, 25° C. and 40% humidity
# [15] = Amount of VC 0, day 30, 25° C. and 40% humidity
# [16] = Amount of VC 0, day 60, 25° C. and 40% humidity
# [17] = Amount of VC 20%, day 0, 25° C. and 40% humidity
# [18] = Amount of VC 20%, day 7, 25° C. and 40% humidity
# [19] = Amount of VC 20%, day 15, 25° C. and 40% humidity
# [20] = Amount of VC 20%, day 30, 25° C. and 40% humidity
# [21] = Amount of VC 20%, day 60, 25° C. and 40% humidity
# [22] = Amount of VC 100%, day 0, 25° C. and 40% humidity
# [23] = Amount of VC 100%, day 7, 25° C. and 40% humidity
# [24] = Amount of VC 100%, day 15, 25° C. and 40% humidity
# [25] = Amount of VC 100%, day 30, 25° C. and 40% humidity
# [26] = Amount of VC 100%, day 60, 25° C. and 40% humidity
# [27] = Amount of VC 500%, day 0, 25° C. and 40% humidity
# [28] = Amount of VC 1000%, day 0, 25° C. and 40% humidity
# [29] = Amount of VC 10000%, day 0, 25° C. and 40% humidity
compound,measurement,setting,value
CN1C2CNC3=NC(N)=NCC31N(c1ccc(C(=O)NC(CCC(=O)O)C(=O)O)cc1)C2 (centres unmarked) [JK12A],anatomical findings in liver and kidney,mice [1],no significant changes
same,effect on T lymphocyte proliferation,[2],significant inhibitory effect
same,T cell proliferation Comprehensive evaluation Percent enhancement/inhibition,[2]; [6],−8%
same,T lymphocyte Stimulus with Con A Mean CPM,[2]; [6],40459 CPM
same,T cell proliferation Comprehensive evaluation Percent enhancement/inhibition,[2]; [7],−68%
same,T lymphocyte Stimulus with Con A Mean CPM,[2]; [7],14073 CPM
same,T cell proliferation Comprehensive evaluation Percent enhancement/inhibition,[2]; [8],−60%
same,T lymphocyte Stimulus with Con A Mean CPM,[2]; [8],17590 CPM
same,T cell proliferation Comprehensive evaluation Percent enhancement/inhibition,[2]; [9],−42%
same,T lymphocyte Stimulus with Con A Mean CPM,[2]; [9],25507 CPM
same,T cell proliferation Comprehensive evaluation Percent enhancement/inhibition,[2]; Concentration determined 6.4 M,−30%
same,T lymphocyte Stimulus with Con A Mean CPM,[2]; Concentration determined 6.4 M,30784 CPM
same,T cell proliferation Comprehensive evaluation Percent enhancement/inhibition,[2]; [10],−18%
same,T lymphocyte Stimulus with Con A Mean CPM,[2]; [10],36061 CPM
same,T cell proliferation Comprehensive evaluation Percent enhancement/inhibition,[2]; Concentration determined […],−1%
same,T lymphocyte Stimulus with Con A Mean CPM,[2]; Concentration determined […],43537 CPM
same,Cell survival rate,T lymphocyte; [11],73%
same,Mean OD,T lymphocyte; [11],0.089
same,Cell survival rate,T lymphocyte; [7],75%
same,Mean OD,T lymphocyte; [7],0.052
same,Cell survival rate,T lymphocyte; [8],59%
same,Mean OD,T lymphocyte; [8],0.073
same,Cell survival rate,T lymphocyte; [9],62%
same,Mean OD,T lymphocyte; [9],0.076
same,Cell survival rate,T lymphocyte; Concentration determined 6.4 M,84%
same,Mean OD,T lymphocyte; Concentration determined 6.4 M,0.103
same,Cell survival rate,T lymphocyte; [10],92%
same,Mean OD,T lymphocyte; [10],0.113
same,Cell survival rate,T lymphocyte; Concentration determined […],89%
same,Mean OD,T lymphocyte; Concentration determined […],0.109
CN1C2CNC3=NC(N)=NCC31N(c1ccc(C(=O)O)cc1)C2 (centres unmarked) [JK1303],anatomical finding in the renal tubules,mice [3],a large number of vacuoles
same,renal toxicity finding,mice [3],severe renal tubular necrosis
(6S)-5-methyl tetrahydrofolic acid calcium salt [Example 11],(6S)-5-methyl tetrahydrofolic acid calcium salt content,[12],99.95%
same,JK12A content,[12],0.03%
same,(6S)-5-methyl tetrahydrofolic acid calcium salt content,[13],99.90%
same,JK12A content,[13],0.06%
same,(6S)-5-methyl tetrahydrofolic acid calcium salt content,[14],99.85%
same,JK12A content,[14],0.12%
same,(6S)-5-methyl tetrahydrofolic acid calcium salt content,[15],99.63%
same,JK12A content,[15],0.25%
same,(6S)-5-methyl tetrahydrofolic acid calcium salt content,[16],99.40%
same,JK12A content,[16],0.46%
same,(6S)-5-methyl tetrahydrofolic acid calcium salt content,[17],99.95%
same,JK12A content,[17],0.03%
same,(6S)-5-methyl tetrahydrofolic acid calcium salt content,[18],99.94%
same,JK12A content,[18],0.04%
same,(6S)-5-methyl tetrahydrofolic acid calcium salt content,[19],99.89%
same,JK12A content,[19],0.08%
same,(6S)-5-methyl tetrahydrofolic acid calcium salt content,[20],99.71%
same,JK12A content,[20],0.17%
same,(6S)-5-methyl tetrahydrofolic acid calcium salt content,[21],99.50%
same,JK12A content,[21],0.22%
same,(6S)-5-methyl tetrahydrofolic acid calcium salt content,[22],99.95%
same,JK12A content,[22],0.03%
same,(6S)-5-methyl tetrahydrofolic acid calcium salt content,[23],99.94%
same,JK12A content,[23],0.03%
same,(6S)-5-methyl tetrahydrofolic acid calcium salt content,[24],99.90%
same,JK12A content,[24],0.05%
same,(6S)-5-methyl tetrahydrofolic acid calcium salt content,[25],99.90%
same,JK12A content,[25],0.05%
same,(6S)-5-methyl tetrahydrofolic acid calcium salt content,[26],99.86%
same,JK12A content,[26],0.10%
same,(6S)-5-methyl tetrahydrofolic acid calcium salt content,[27],99.95%
same,JK12A content,[27],0.03%
same,(6S)-5-methyl tetrahydrofolic acid calcium salt content,"Amount of VC 500%, day 7, 25° C. and 40% humidity",100.00%
same,(6S)-5-methyl tetrahydrofolic acid calcium salt content,"Amount of VC 500%, day 15, 25° C. and 40% humidity",100.00%
same,(6S)-5-methyl tetrahydrofolic acid calcium salt content,"Amount of VC 500%, day 30, 25° C. and 40% humidity",99.98%
same,(6S)-5-methyl tetrahydrofolic acid calcium salt content,"Amount of VC 500%, day 60, 25° C. and 40% humidity",99.96%
same,(6S)-5-methyl tetrahydrofolic acid calcium salt content,[28],99.95%
same,JK12A content,[28],0.03%
same,(6S)-5-methyl tetrahydrofolic acid calcium salt content,"Amount of VC 1000%, day 7, 25° C. and 40% humidity",100.00%
same,(6S)-5-methyl tetrahydrofolic acid calcium salt content,"Amount of VC 1000%, day 15, 25° C. and 40% humidity",100.00%
same,(6S)-5-methyl tetrahydrofolic acid calcium salt content,"Amount of VC 1000%, day 30, 25° C. and 40% humidity",100.00%
same,(6S)-5-methyl tetrahydrofolic acid calcium salt content,"Amount of VC 1000%, day 60, 25° C. and 40% humidity",100.00%
same,(6S)-5-methyl tetrahydrofolic acid calcium salt content,[29],99.95%
same,JK12A content,[29],0.03%
same,(6S)-5-methyl tetrahydrofolic acid calcium salt content,"Amount of VC 10000%, day 7, 25° C. and 40% humidity",100.00%
same,(6S)-5-methyl tetrahydrofolic acid calcium salt content,"Amount of VC 10000%, day 15, 25° C. and 40% humidity",100.00%
same,(6S)-5-methyl tetrahydrofolic acid calcium salt content,"Amount of VC 10000%, day 30, 25° C. and 40% humidity",100.00%
same,(6S)-5-methyl tetrahydrofolic acid calcium salt content,"Amount of VC 10000%, day 60, 25° C. and 40% humidity",100.00%
calcium (6S)-5-methyltetrahydrofolate,response of mice,mice [4]; dosage of 15000 mg/kg,no abnormal response
same,maximum tolerable dose (MTD),mice [4]; mice,greater than 15 g/kg
same,LD50 (median lethal dose),[5],2000 mg/kg
